By IC50 is commonly meant the concentration at which inhibition is half-maximal. A higher IC50 goes with lower potency.

The values below come from paper PMC4106133 (Journal of medicinal chemistry, 2013).

Each structure is given as a SMILES string.

The target of assay [1] is T1, α4β2 nAChR (Rattus norvegicus, UniProt P09483+P12390). The assay can be described thus: [3H]epibatidine binding to α4β2 nAChR in cell membranes. As to conditions: binding selectivity for α4β2 over α3β4.
The subject of the next assay is α3β4α5 nAChR. The assay is described as follows: binding affinity against α3β4α5 nAChR.
Assay [2] concerns the target T1, α4β2 nAChR. The assay is described as follows: nAChR functional assay, membrane potential change. In kind it is cell-based.
The next assay concerns the target α3β4 nAChR (Rattus norvegicus, UniProt P04757+P12392). The assay can be described thus: nAChR functional assay, membrane potential change. It counts as cell-based.

T1 sequence (P09483 31-630): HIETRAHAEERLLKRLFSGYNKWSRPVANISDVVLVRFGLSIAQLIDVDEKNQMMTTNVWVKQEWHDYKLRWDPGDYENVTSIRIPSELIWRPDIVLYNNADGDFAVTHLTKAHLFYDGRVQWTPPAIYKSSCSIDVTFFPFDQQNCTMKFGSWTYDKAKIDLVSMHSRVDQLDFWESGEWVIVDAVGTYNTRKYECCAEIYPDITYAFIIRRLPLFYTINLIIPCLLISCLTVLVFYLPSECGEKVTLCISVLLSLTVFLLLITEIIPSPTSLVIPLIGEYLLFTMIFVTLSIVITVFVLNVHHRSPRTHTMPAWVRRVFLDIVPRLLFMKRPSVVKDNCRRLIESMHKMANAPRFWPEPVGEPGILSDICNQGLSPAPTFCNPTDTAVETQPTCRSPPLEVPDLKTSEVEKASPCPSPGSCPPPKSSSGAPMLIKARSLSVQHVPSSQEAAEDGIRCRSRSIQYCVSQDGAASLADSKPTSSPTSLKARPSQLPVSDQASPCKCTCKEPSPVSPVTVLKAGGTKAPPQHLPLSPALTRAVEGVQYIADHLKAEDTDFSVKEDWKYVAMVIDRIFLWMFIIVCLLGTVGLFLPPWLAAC
T1 sequence (P12390 25-500): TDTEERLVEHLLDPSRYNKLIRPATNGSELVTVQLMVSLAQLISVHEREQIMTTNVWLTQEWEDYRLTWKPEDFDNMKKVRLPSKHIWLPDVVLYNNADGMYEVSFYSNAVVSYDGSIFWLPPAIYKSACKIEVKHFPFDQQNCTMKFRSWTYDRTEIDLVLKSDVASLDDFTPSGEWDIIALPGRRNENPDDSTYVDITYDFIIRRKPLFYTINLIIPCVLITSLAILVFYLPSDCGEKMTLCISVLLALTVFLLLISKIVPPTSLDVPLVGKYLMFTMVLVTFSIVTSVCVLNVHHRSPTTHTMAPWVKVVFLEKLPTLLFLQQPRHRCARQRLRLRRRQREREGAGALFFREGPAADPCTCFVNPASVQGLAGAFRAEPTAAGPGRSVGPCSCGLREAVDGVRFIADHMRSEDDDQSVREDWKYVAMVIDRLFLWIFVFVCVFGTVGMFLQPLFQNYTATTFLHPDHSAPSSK
Chain of α3β4 nAChR (P04757 26-499): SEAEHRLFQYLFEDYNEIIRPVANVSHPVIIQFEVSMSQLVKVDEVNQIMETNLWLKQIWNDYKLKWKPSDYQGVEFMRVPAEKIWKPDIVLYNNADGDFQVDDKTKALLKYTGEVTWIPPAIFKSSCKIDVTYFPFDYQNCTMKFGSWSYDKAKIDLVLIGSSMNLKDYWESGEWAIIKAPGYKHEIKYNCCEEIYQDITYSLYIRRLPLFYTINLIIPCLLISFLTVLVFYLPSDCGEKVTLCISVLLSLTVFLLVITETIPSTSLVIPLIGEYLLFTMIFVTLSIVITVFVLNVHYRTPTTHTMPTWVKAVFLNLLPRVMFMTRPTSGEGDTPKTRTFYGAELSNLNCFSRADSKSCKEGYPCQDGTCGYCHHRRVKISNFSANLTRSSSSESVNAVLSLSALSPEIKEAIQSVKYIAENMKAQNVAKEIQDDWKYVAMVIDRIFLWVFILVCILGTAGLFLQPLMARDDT
Chain of α3β4 nAChR (P12392 21-495): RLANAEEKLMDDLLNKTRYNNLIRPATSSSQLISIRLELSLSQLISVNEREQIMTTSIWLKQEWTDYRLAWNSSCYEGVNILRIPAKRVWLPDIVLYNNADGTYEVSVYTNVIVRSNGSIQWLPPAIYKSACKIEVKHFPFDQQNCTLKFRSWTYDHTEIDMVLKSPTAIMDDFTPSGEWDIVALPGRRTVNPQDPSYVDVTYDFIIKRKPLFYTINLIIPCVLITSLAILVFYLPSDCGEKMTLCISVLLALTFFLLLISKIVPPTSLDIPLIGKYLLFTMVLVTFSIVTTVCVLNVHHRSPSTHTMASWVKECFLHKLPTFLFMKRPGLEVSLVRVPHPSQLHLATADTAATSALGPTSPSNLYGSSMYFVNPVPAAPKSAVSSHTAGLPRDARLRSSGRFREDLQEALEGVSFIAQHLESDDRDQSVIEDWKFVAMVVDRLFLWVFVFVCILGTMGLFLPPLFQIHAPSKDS

As to `CC(C)(C)C1CCC(CN2C(=N)N(CCCC[C@H]3CNC(=N)N3CCc3cccnc3)C[C@H]2Cc2ccccc2)CC1` (stereo partly drawn) [Compound 301, (R)-4-Benzyl-3-((4-tert-butylcyclohexyl)methyl)-1-(4-((S)-2-imino-3-(2-(pyridin-3-yl)ethyl)imidazolidin-4-yl)butyl)imidazolidin-2-imine], the “selectivity (fold) (α3β4 Ki/α4β2 Ki)” value at α4β2 nAChR [1] is listed as roughly 500 fold. The “binding affinity Kd/Ki against α3β4α5 nAChR” value in the assay on α3β4α5 nAChR stood at 9.062 µM. Further, the “agonist activity at α4β2 nAChR” value on α4β2 nAChR [2] (membrane potential change, HEK cells, up to 10 µM) is “no agonist activity”. In addition, the “mode of inhibition of nicotine's activity” value on α4β2 nAChR [2] (nicotine dose response curves with various concentrations of 301) is listed as “noncompetitive”. On α4β2 nAChR [2] (α4β2-containing cells, very high concentrations), the inverse agonist activity entry is “potential inverse agonist activity”. Besides, the 50% inhibitory concentration (IC50) against α3β4 nAChR is greater than 10 µM. Also, the “agonist activity at α3β4 nAChR” value at α3β4 nAChR (membrane potential change, HEK cells) is given as “no agonist activity”.

With `CN1CCC[C@H]1c1cccnc1` [nicotine, reference compound], the Emax at α4β2 nAChR [2] (HEK293, read-out: nicotine maximum stimulation) was 100%.
